Data taken from patent US20070048370A1, “Pharmaceutical formulation for salts of monobasic acids with clopidogrel” (priority 2005, published 2007).
Like-named read-outs stand apart in the source and are kept apart here.

Procedure: The stability of clopidogrel besylate in the presence of various tabletting excipients was investigated. For this purpose, clopidogrel besylate was thoroughly triturated with the excipient in the ratio 1:1 and stored for two weeks at 40° C. and 75% relative humidity. The content of clopidogrel besylate in the sample was then determined.

In the case of “5-methyl-a-(4,5,6,7-tetrahydro[2,3-c]thienopyridyl)(2-chlorophenyl)acetate [Clopidogrel besylate]”, the “Clopidogrel besylate Residual content (%)” value (1:1 with AcDiSol, two weeks at 40° C. and 75% relative humidity) is reported as 94.00%, the “Clopidogrel besylate Residual content (%)” value (1:1 with Lactose, two weeks at 40° C. and 75% relative humidity) is reported as 99.86% and the “Clopidogrel besylate Residual content (%)” value (1:1 with Macrogol 6000, two weeks at 40° C. and 75% relative humidity) is reported as 90.07%. For the same substance, the “Clopidogrel besylate Residual content (%)” value (1:1 with Mannitol, two weeks at 40° C. and 75% relative humidity) was 99.85%, the “Clopidogrel besylate Residual content (%)” value (1:1 with Mg-stearate, two weeks at 40° C. and 75% relative humidity) was 51.99% and the “Clopidogrel besylate Residual content (%)” value (1:1 with Microcrystalline cellulose, two weeks at 40° C. and 75% relative humidity) was 99.24%. For the same substance, the “Clopidogrel besylate Residual content (%)” value (1:1 with Silica, two weeks at 40° C. and 75% relative humidity) was 99.44%, the “Clopidogrel besylate Residual content (%)” value (1:1 with Stearic acid, two weeks at 40° C. and 75% relative humidity) was 99.50% and the “Clopidogrel besylate Residual content (%)” value (no excipient, stored two weeks at 40° C. and 75% relative humidity, content vs beginning of storage) was 99.76%. For the same substance, the “Compatibility with excipient (decomposition of the active substance)” value (from here on “Compatibility with excipient”) (with Macrogol 6000) was “incompatible”, the “Compatibility with excipient” value (with Magnesium stearate) was “incompatible” and the “Compatibility with excipient” value (with croscarmellose sodium (AcDiSol)) was “incompatible”. The “Compatibility with excipient” value (with sodium lauryl sulfate) was “incompatible”.
